Assay results as given in PubChem BioAssay (NCI).
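96-well plates; 48 h exposure; 5 concentrations. Endpoints by linear interpolation between flanking doses. Not reached: highest tested concentration assigned. The concentration for 50% growth inhibition is given as GI50. TGI: concentration producing complete growth inhibition.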

How the values were obtained:
Experiment in all cases: growth of human tumour cells (NCI), 48 h
UO-31 renal = system: UO-31 renal
KM12 colon = system: KM12 colon
NCI-H522 lung = system: NCI-H522 lung
UACC-62 melanoma = system: UACC-62 melanoma
RPMI-8226 leukemia = system: RPMI-8226 leukemia
CCRF-CEM leukemia = system: CCRF-CEM leukemia
TK-10 renal = system: TK-10 renal
K-562 leukemia = system: K-562 leukemia
COLO 205 colon = system: COLO 205 colon
SK-OV-3 ovarian = system: SK-OV-3 ovarian

Structure (SMILES) | TGI (UO-31 renal) [µM] | TGI (KM12 colon) [µM] | TGI (NCI-H522 lung) [µM] | TGI (UACC-62 melanoma) [µM] | TGI (RPMI-8226 leukemia) [µM] | TGI (CCRF-CEM leukemia) [µM] | TGI (TK-10 renal) [µM] | TGI (K-562 leukemia) [µM] | TGI (COLO 205 colon) [µM] | GI50 (SK-OV-3 ovarian) [µM] | TGI (SK-OV-3 ovarian) [µM] | GI50 (UO-31 renal) [µM] | GI50 (KM12 colon) [nM] | GI50 (UACC-62 melanoma) [nM] | GI50 (RPMI-8226 leukemia) [µM] | GI50 (CCRF-CEM leukemia) [nM] | GI50 (K-562 leukemia) [nM] | GI50 (COLO 205 colon) [nM] | GI50 (TK-10 renal) [µM]
CN/N=C(/CC(=O)c1sc(NNC(C)=O)nc1C)C(=O)Nc1ccc(OC)cc1OC | > 100 | > 100 | > 100 | > 100 | > 100 | > 100 | > 100 | > 100 | > 100 | – | – | – | – | – | – | – | – | – | –
O=S1(=O)C=C(c2ccccc2)C(c2ccccc2)=C1 | 2.6 | 3.2 | – | 3.64 | 7.92 | 7.6 | – | > 100 | 3.61 | 7.81 | 20.2 | 1.15 | 1630 | 1730 | 3.3 | 3000 | 1830 | 1770 | –
CC(C)CC1NC(=O)C(C(C)C)NC(=O)CC(C)COC(=O)C(CC(C)C)N(C)C(=O)C(C(C)C)NC(=O)C(C(C)C)OC1=O (configuration not stated) | > 50 | > 50 | > 50 | > 50 | – | > 50 | – | > 50 | > 50 | – | > 50 | – | – | – | – | – | – | – | –
Cc1c(C(=O)Nc2ccc(Cl)cc2)nc(N)nc1-c1cccc(Cl)c1 | > 100 | > 100 | – | > 100 | – | > 100 | – | > 100 | > 100 | – | > 100 | – | – | – | – | – | – | – | –
CCC12C=CCN3CCC4(C(=C(C(=O)OC)C1)Nc1ccccc14)[C@H]32 (some centres not stated) | > 100 | > 100 | 49.4 | 67.6 | – | 79.5 | > 100 | 52.5 | 32.3 | – | 49.7 | – | – | – | – | – | – | – | –
CCOc1ccccc1NC(=O)C(=O)c1c(O)c2ccc(O)cc2oc1=O | > 100 | > 100 | > 100 | > 100 | – | > 100 | > 100 | > 100 | > 100 | – | > 100 | – | – | – | – | – | – | – | –
NNC(=O)N/N=C1/C(=O)N(c2ccc(Cl)c(Cl)c2)C(=O)C(=O)C1c1nc2ccccc2o1 (configuration not stated) | > 100 | – | > 100 | > 100 | – | > 100 | > 100 | > 100 | > 100 | – | > 100 | – | – | – | – | – | – | – | –
CN(C)c1ccc(/C=N/NC(=O)c2cnc3ccccc3c2)cc1 | > 100 | > 100 | > 100 | > 100 | > 100 | – | > 100 | > 100 | > 100 | – | > 100 | – | – | – | – | – | – | – | –
CC1(C)N=C(N)N=C(N)N1c1ccc(CCC(=O)Nc2cccc(S(=O)(=O)F)c2)cc1 | > 100 | > 100 | – | > 100 | > 100 | – | > 100 | > 100 | > 100 | > 100 | > 100 | 13.2 | 10600 | 5300 | 36.4 | – | 1350 | 41100 | 5.57
COc1ccc2c(c1)NC(=O)CN2c1nc(C)nc2ccccc12 | > 100 | > 100 | – | > 100 | > 100 | > 100 | > 100 | > 100 | 0.0012 | 0.000409 | 7.19 | – | 0.353 | 0.432 | 0.000603 | 0.551 | 0.359 | 0.322 | –
